Test results taken from the supplement of paper PMC10627819.

How the values were obtained:
B. subtilis 168 [1] = assay: fitness (endpoint OD595 vs no drug) (fraction); higher = more growth
Method in brief: (§1)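 Bacterial growth was followed in 384-well plates seeded at OD595 0.01, with 30 µl per well, or 55 µl for S. pneumoniae, in TSB, LB Lennox or CY at 37 °C. OD595 was read every 30 min for 14 h, and each reading had the first reading subtracted as background. Fitness is the background-corrected optical density at entry into stationary phase divided by the robust mean of the no-drug control wells. This ratio is capped at 1.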

S. aureus Newman [2] = assay: as above; settings: one replicate
Method in brief: as §1

S. pneumoniae D39V = assay: Bliss interaction score (quartile over a dose matrix) (fitness difference); higher = more antagonism (negative = synergy)
Method in brief: (§2)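 Fitness here means normalised growth, inferred for single drugs from the combination data. Growth was OD595 at entry into stationary phase, divided by the plate's robust no-drug mean and capped at 1. The Bliss score is observed minus expected fitness, with the expectation being the product, and its quartiles span technical, biological and donor/recipient replicates.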

S. aureus DSM 20231 = assay: as above
Method in brief: as §2

B. subtilis 168 [3] = assay: as above
Method in brief: as §2

S. aureus Newman [4] = assay: as above
Method in brief: as §2
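Wherever Bliss interaction score (quartile over a dose matrix) is given: first quartile when negative (synergy) and third quartile when positive (antagonism).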

CO/N=C(\C(=O)N[C@@H]1C(=O)N2C(C(=O)O)=C(COC(N)=O)CS[C@H]12)c1ccco1 [Cefuroxime] + CCN(CC)CCOC(=O)c1ccc(N)cc1 [Procaine]
fitness
Settings | first compound 0.04875 µg/mL | first compound 0.0975 µg/mL | first compound 0.195 µg/mL
B. subtilis 168 [1], partner 85.5 µg/mL | 0.756 | 0.685 | 0.527
B. subtilis 168 [1], partner 171 µg/mL | 0.762 | 0.65 | 0.512
B. subtilis 168 [1], partner 342 µg/mL | 0.75 | – | 0.519
S. aureus Newman [2], partner 85.5 µg/mL | 0.953 | 0.92 | 0.904
S. aureus Newman [2], partner 171 µg/mL | 0.962 | 0.904 | 0.905
S. aureus Newman [2], partner 342 µg/mL | 0.947 | 0.907 | 0.902

fitness, B. subtilis 168 [1], one replicate
Settings | first compound 1.562 µg/mL | first compound 3.125 µg/mL | first compound 6.25 µg/mL
partner 85.5 µg/mL | 0.348 | 0.28 | 0.225
partner 171 µg/mL | 0.288 | 0.256 | 0.153
partner 342 µg/mL | 0.293 | 0.233 | 0.202

Settings | Bliss interaction score
B. subtilis 168 [3] | 0.0619
S. aureus DSM 20231 | 0.0947
S. aureus Newman [4] | -0.0324
S. pneumoniae D39V | -0.0452

CO/N=C(\C(=O)N[C@@H]1C(=O)N2C(C(=O)O)=C(COC(N)=O)CS[C@H]12)c1ccco1 [Cefuroxime] + CN1C2=CC=CC=C2N=C3C1=CC=CC3=O [Pyocyanin]
fitness
Settings | first compound 0.04875 µg/mL | first compound 0.0975 µg/mL | first compound 0.195 µg/mL
B. subtilis 168 [1], partner 1.25 µg/mL | – | – | 0.53
B. subtilis 168 [1], partner 2.5 µg/mL | 0.719 | – | 0.513
B. subtilis 168 [1], partner 5 µg/mL | 0.59 | 0.501 | 0.463
S. aureus Newman [2], partner 1.25 µg/mL | 0.903 | 0.869 | 0.897
S. aureus Newman [2], partner 2.5 µg/mL | 0.84 | 0.779 | 0.864
S. aureus Newman [2], partner 5 µg/mL | 0.504 | 0.451 | 0.472

fitness, B. subtilis 168 [1], one replicate
Settings | first compound 1.562 µg/mL | first compound 3.125 µg/mL | first compound 6.25 µg/mL
partner 1.25 µg/mL | 0.331 | 0.306 | 0.24
partner 2.5 µg/mL | 0.308 | 0.258 | 0.192
partner 5 µg/mL | 0.253 | 0.215 | 0.184

Settings | Bliss interaction score
B. subtilis 168 [3] | 0.0646
S. aureus DSM 20231 | -0.0629
S. aureus Newman [4] | -0.0853
S. pneumoniae D39V | -0.0309
